Test results published in ChEMBL document CHEMBL1130444, “Inhibitory effects of pentamidine analogues on spermine stimulated ligand binding to the NMDA receptor complex” (Bioorg Med Chem Lett, 1997).
“And” between values parts separate entries of the source, which are not always exact repeats. Identical values can stand only once.

target: Glutamate NMDA receptor; test: Inhibition of [3H]MK-801 binding to the NMDA receptor of rat hippocampal membranes, measured in buffer containing 20 mM TRIS acetate, pH 7; assay type: cell membranes, Membrane

Row | SMILES | IC50
1 | COc1cc(C(=N)N)ccc1OC/C=C\COc1ccc(C(=N)N)cc1OC | 50 µM and 62 µM
2 | N=C(N)c1ccc(OC[C@@H](O)[C@H](O)COc2ccc(C(=N)N)cc2)cc1 | 24.8 µM and 22.6 µM
3 | N=C(N)c1ccc(OC/C=C/COc2ccc(C(=N)N)cc2)cc1 | 2.48 µM and 1.94 µM
4 | C(=C\COc1ccc(C2=NCCN2)cc1)/COc1ccc(C2=NCCN2)cc1 | 13.1 µM and 13.8 µM
5 | C(=C/COc1ccc(C2=NCCN2)cc1)/COc1ccc(C2=NCCN2)cc1 | 18.8 µM and 15.9 µM

The remaining lines, values ahead:

Row | IC50 | SMILES
6 | 35 µM and 33 µM | COc1cc(C2=NCCN2)ccc1OC/C=C/COc1ccc(C2=NCCN2)cc1OC
7 | 1.31 µM and 1.74 µM | N=C(N)c1ccc(OCCCCCOc2ccc(C(=N)N)cc2)cc1 [PENTAMIDINE]
8 | 26.5 µM and 23.3 µM | COc1cc(C2=NCCN2)ccc1OC/C=C\COc1ccc(C2=NCCN2)cc1OC
9 | 1.8 µM and 1.48 µM | N=C(N)c1ccc(OC/C=C\COc2ccc(C(=N)N)cc2)cc1
10 | 2.64 µM and 3.01 µM | N=C(N)c1ccc(OCCCCOc2ccc(C(=N)N)cc2)cc1
11 | 12 µM and 12.6 µM | COc1cc(C(=N)N)ccc1OC/C=C/COc1ccc(C(=N)N)cc1OC

target: T1, Glutamate NMDA receptor (Rattus norvegicus) (UniProt P35439+Q00959+Q00960+Q00961+Q62645+Q8VHN2+Q9R1M7); test: Effect of spermine on the inhibition of [3H]MK-801 binding to the NMDA receptor at 100 TRIS acetate, pH 7; assay type: protein-complex assay

Row | SMILES | Increase in IC50
12 | COc1cc(C(=N)N)ccc1OC/C=C\COc1ccc(C(=N)N)cc1OC | 1.72 and 2.87
13 | N=C(N)c1ccc(OC[C@@H](O)[C@H](O)COc2ccc(C(=N)N)cc2)cc1 | 8.1

Second part, the compound after the results:

Row | Increase in IC50 | SMILES
14 | 4.24 and 3.79 | COc1cc(C2=NCCN2)ccc1OC/C=C/COc1ccc(C2=NCCN2)cc1OC
15 | 2.87 and 4.15 | COc1cc(C(=N)N)ccc1OC/C=C/COc1ccc(C(=N)N)cc1OC

target: T1, Glutamate NMDA receptor (Rattus norvegicus); test: Hill coefficient for binding to NMDA receptor in TRIS acetate pH 7; assay type: protein-complex assay

Row | SMILES | nH
16 | COc1cc(C(=N)N)ccc1OC/C=C\COc1ccc(C(=N)N)cc1OC | 2.14 and 1
17 | N=C(N)c1ccc(OC[C@@H](O)[C@H](O)COc2ccc(C(=N)N)cc2)cc1 | 1.23 and 1.08
18 | N=C(N)c1ccc(OC/C=C/COc2ccc(C(=N)N)cc2)cc1 | 0.71
19 | C(=C\COc1ccc(C2=NCCN2)cc1)/COc1ccc(C2=NCCN2)cc1 | 0.98 and 0.81
20 | C(=C/COc1ccc(C2=NCCN2)cc1)/COc1ccc(C2=NCCN2)cc1 | 0.99

Next, values leading:

Row | nH | SMILES
21 | 1.09 and 1.16 | COc1cc(C2=NCCN2)ccc1OC/C=C/COc1ccc(C2=NCCN2)cc1OC
22 | 0.93 | N=C(N)c1ccc(OCCCCCOc2ccc(C(=N)N)cc2)cc1 [PENTAMIDINE]
23 | 1.33 and 1.15 | COc1cc(C2=NCCN2)ccc1OC/C=C\COc1ccc(C2=NCCN2)cc1OC
24 | 1.13 | N=C(N)c1ccc(OC/C=C\COc2ccc(C(=N)N)cc2)cc1
25 | 0.99 | N=C(N)c1ccc(OCCCCOc2ccc(C(=N)N)cc2)cc1
26 | 1.28 and 1.21 | COc1cc(C(=N)N)ccc1OC/C=C/COc1ccc(C(=N)N)cc1OC

target: T1, Glutamate NMDA receptor (Rattus norvegicus); test: Hill coefficient for binding to NMDA receptor; assay type: protein-complex assay

Row | SMILES | nH
27 | COc1cc(C(=N)N)ccc1OC/C=C\COc1ccc(C(=N)N)cc1OC | 1.21 and 1.46
28 | N=C(N)c1ccc(OC[C@@H](O)[C@H](O)COc2ccc(C(=N)N)cc2)cc1 | 1.04 and 1.09
29 | N=C(N)c1ccc(OC/C=C/COc2ccc(C(=N)N)cc2)cc1 | 0.98 and 0.88
30 | C(=C\COc1ccc(C2=NCCN2)cc1)/COc1ccc(C2=NCCN2)cc1 | 0.95 and 0.87
31 | C(=C/COc1ccc(C2=NCCN2)cc1)/COc1ccc(C2=NCCN2)cc1 | 1.21

Now from value to compound:

Row | nH | SMILES
32 | 1.04 and 0.96 | COc1cc(C2=NCCN2)ccc1OC/C=C/COc1ccc(C2=NCCN2)cc1OC
33 | 1.17 and 1.15 | N=C(N)c1ccc(OCCCCCOc2ccc(C(=N)N)cc2)cc1 [PENTAMIDINE]
34 | 1.13 and 1.29 | COc1cc(C2=NCCN2)ccc1OC/C=C\COc1ccc(C2=NCCN2)cc1OC
35 | 1.39 and 1.38 | N=C(N)c1ccc(OC/C=C\COc2ccc(C(=N)N)cc2)cc1
36 | 1.11 and 1.36 | N=C(N)c1ccc(OCCCCOc2ccc(C(=N)N)cc2)cc1
37 | 1.19 | COc1cc(C(=N)N)ccc1OC/C=C/COc1ccc(C(=N)N)cc1OC

target: Glutamate NMDA receptor; test: Inhibition of [3H]MK-801 binding to the NMDA receptor of rat hippocampal membranes, measured in buffer containing 50 mM TRIS acetate, pH 7; assay type: cell membranes, Membrane

Row | SMILES | IC50
38 | COc1cc(C(=N)N)ccc1OC/C=C\COc1ccc(C(=N)N)cc1OC | 95 µM
39 | N=C(N)c1ccc(OC[C@@H](O)[C@H](O)COc2ccc(C(=N)N)cc2)cc1 | 66 µM
40 | N=C(N)c1ccc(OC/C=C/COc2ccc(C(=N)N)cc2)cc1 | 3.81 µM
41 | C(=C\COc1ccc(C2=NCCN2)cc1)/COc1ccc(C2=NCCN2)cc1 | 38 µM and 37 µM
42 | C(=C/COc1ccc(C2=NCCN2)cc1)/COc1ccc(C2=NCCN2)cc1 | 26.7 µM

The next lines start with the values.

Row | IC50 | SMILES
43 | 63 µM | COc1cc(C2=NCCN2)ccc1OC/C=C/COc1ccc(C2=NCCN2)cc1OC
44 | 3.06 µM | N=C(N)c1ccc(OCCCCCOc2ccc(C(=N)N)cc2)cc1 [PENTAMIDINE]
45 | 32.6 µM and 49 µM | COc1cc(C2=NCCN2)ccc1OC/C=C\COc1ccc(C2=NCCN2)cc1OC
46 | 4.26 µM | N=C(N)c1ccc(OC/C=C\COc2ccc(C(=N)N)cc2)cc1
47 | 5.18 µM | N=C(N)c1ccc(OCCCCOc2ccc(C(=N)N)cc2)cc1
48 | 31 µM and 26.4 µM | COc1cc(C(=N)N)ccc1OC/C=C/COc1ccc(C(=N)N)cc1OC

target: T1, Glutamate NMDA receptor (Rattus norvegicus); test: Effect of spermine on the inhibition of [3H]-MK-801 binding to the NMDA receptor TRIS acetate, pH 7; assay type: protein-complex assay

Row | SMILES | Increase in IC50
49 | N=C(N)c1ccc(OC[C@@H](O)[C@H](O)COc2ccc(C(=N)N)cc2)cc1 | 9.3
50 | N=C(N)c1ccc(OC/C=C/COc2ccc(C(=N)N)cc2)cc1 | 9.5
51 | C(=C\COc1ccc(C2=NCCN2)cc1)/COc1ccc(C2=NCCN2)cc1 | 4.14
52 | C(=C/COc1ccc(C2=NCCN2)cc1)/COc1ccc(C2=NCCN2)cc1 | 5.48

Further lines, results first:

Row | Increase in IC50 | SMILES
53 | 9.5 | N=C(N)c1ccc(OCCCCCOc2ccc(C(=N)N)cc2)cc1 [PENTAMIDINE]
54 | 4.62 and 3.43 | COc1cc(C2=NCCN2)ccc1OC/C=C\COc1ccc(C2=NCCN2)cc1OC
55 | 11.9 | N=C(N)c1ccc(OC/C=C\COc2ccc(C(=N)N)cc2)cc1
56 | 10.2 | N=C(N)c1ccc(OCCCCOc2ccc(C(=N)N)cc2)cc1

target: Glutamate NMDA receptor; test: Inhibition of [3H]MK-801 binding to NMDA receptor in 50 mM TRIS acetate pH 7; assay type: protein-complex assay, Rattus norvegicus

Row | IC50 [µM] | SMILES
57 | 83 | COc1cc(C2=NCCN2)ccc1OC/C=C/COc1ccc(C2=NCCN2)cc1OC
58 | 73 | COc1cc(C(=N)N)ccc1OC/C=C\COc1ccc(C(=N)N)cc1OC

target: T1, Glutamate NMDA receptor (Rattus norvegicus); test: Effect of spermine on the inhibition of [3H]MK-801 binding to the NMDA receptor TRIS acetate, pH 7; assay type: protein-complex assay

Row | SMILES | Increase in IC50
59 | COc1cc(C(=N)N)ccc1OC/C=C\COc1ccc(C(=N)N)cc1OC | 4.7 and 4.5
60 | N=C(N)c1ccc(OC[C@@H](O)[C@H](O)COc2ccc(C(=N)N)cc2)cc1 | 28.4 and 22.4
61 | N=C(N)c1ccc(OC/C=C/COc2ccc(C(=N)N)cc2)cc1 | 21.7 and 27.8
62 | C(=C\COc1ccc(C2=NCCN2)cc1)/COc1ccc(C2=NCCN2)cc1 | 15.3 and 12.7
63 | C(=C/COc1ccc(C2=NCCN2)cc1)/COc1ccc(C2=NCCN2)cc1 | 9.9 and 12.1

The remaining lines, values ahead:

Row | Increase in IC50 | SMILES
64 | 12.7 and 13.8 | COc1cc(C2=NCCN2)ccc1OC/C=C/COc1ccc(C2=NCCN2)cc1OC
65 | 30.7 and 21.4 | N=C(N)c1ccc(OCCCCCOc2ccc(C(=N)N)cc2)cc1 [PENTAMIDINE]
66 | 7.8 and 8.6 | COc1cc(C2=NCCN2)ccc1OC/C=C\COc1ccc(C2=NCCN2)cc1OC
67 | 29.1 and 38.2 | N=C(N)c1ccc(OC/C=C\COc2ccc(C(=N)N)cc2)cc1
68 | 28.8 and 35 | N=C(N)c1ccc(OCCCCOc2ccc(C(=N)N)cc2)cc1
69 | 14.3 and 12.2 | COc1cc(C(=N)N)ccc1OC/C=C/COc1ccc(C(=N)N)cc1OC

target: T1, Glutamate NMDA receptor (Rattus norvegicus); test: Effect of spermine on inhibition of [3H]MK-801 binding to NMDA receptor at 100 TRIS acetate, pH 7; assay type: protein-complex assay

Row | Increase in IC50 | SMILES
70 | 4.88 | C(=C\COc1ccc(C2=NCCN2)cc1)/COc1ccc(C2=NCCN2)cc1
